Measured values published in patent publication US7087424B1, “Method of controlling fungal pathogens, and agents useful for same” (priority 1999, dated 2006).
Read-outs that look alike come from different tables or passages of the source.

Legend:
[1] = media pH with purified acids (Table 2); type: physicochemical
[2] = system: take-all fungus; test: agar overlay / PDA plate bioassay against take-all fungus; type: cell-based, G. graminis var tritici; conditions: for inhibition zone against take-all fungus: FIG. 6B, 12.5 mg purified sugar acid, agar overlay bioassay; for zone of inhibition at 7500 µg/disc / zone of inhibition at 12500 µg/disc / zone of inhibition at 25000 µg/disc: Gaeumannomyces graminis, read-out: Clearance zone radii; for zone of inhibition at 7500 µg/disc: amount 7.5 mg; for zone of inhibition at 12500 µg/disc: amount 12.5 mg; for zone of inhibition at 25000 µg/disc: amount 25.0 mg; for bioactivity against take-all: purified acids, PDA plate bioassay, FIG. 6A/6B; for protection against take-all: summary of Table 2
Description: A modification of the agar plug assay (Poplawsky et al., 1988) was used to assay for bioactivity of extracts of Pseudomonas strain AN5, or derivative strains thereof, against take-all fungus, wherein an agar overlay assay was used to test activity of specific fractions. This assay involves macerating the take-all fungus grown in Potato Dextrose (PD) broth and seeding it to a Potato Dextrose Agar (PDA) overlay. This PDA overlay was poured onto thick PDA plates. Fractions to be tested for activity were spotted on top of the overlay, and the plates were dried and incubated at 16° C. for 3–5 days.
Active fractions were identified by the appearance of a clearance zone in the plates, within an opaque background of cultured fungus.

[3] = system: Botrytis fabae (Chocolate Spot Fungus); test: in vitro bioassays against B. fabae; type: cell-based
Description: Accordingly, it is within the scope of the present invention to produce transgenic faba bean plants which produce sugar acids, using the methods described herein, to enhance tolerance of faba beans to B. fabae.

[4] = cited from earlier work
[5] = cited from earlier work; remark: listed apart in the source

Row | media pH ([1]; amount 4.2 to 8.4 mg) | media pH ([1]; amount 25.0 mg) | Structure (SMILES) | inhibition zone against take-all fungus [2] | zone of inhibition at 7500 µg/disc [2] | zone of inhibition at 12500 µg/disc [2] | zone of inhibition at 25000 µg/disc [2] | bioactivity against take-all [2] | biological activity against take-all relative to gluconic acid [2] | suppression of growth of B. fabae [3] | relation of amount used to size of inhibition zone ([2]; FIG. 6A, 25, 15, 12.5, 7.5 mg pure gluconic acid) | protection against take-all [2] | pKa [4] | solubility ([5]; in chloroform and methylene chloride) | solubility ([5]; in water, methanol and ethyl acetate)
1 | 2.4 |  | CC(=O)O [Acetic acid, reference compound] |  |  |  |  |  |  |  |  |  |  |  | 
2 |  | 1.9 | O=C1O[C@H]([C@@H](O)CO)C(O)=C1O [Ascorbic acid, ascorbic acid] | strong inhibition zones | 0 mm | 9 mm | 20 mm | possessed activity |  |  |  |  |  |  | 
3 |  | 1.7 | O=C[C@H](O)[C@@H](O)[C@@H](O)[C@H](O)C(=O)O [Galacturonic acid, galacturonic acid] |  | 7 mm | 20 mm | 25 mm |  | not as strong as gluconic acid |  |  |  |  |  | 
4 |  | 1.7 | O=C[C@H](O)[C@@H](O)[C@H](O)[C@H](O)C(=O)O [Glucuronic acid, glucuronic acid] | strong inhibition zones | 0 mm | 10 mm | 20 mm | possessed activity |  |  |  |  |  |  | 
5 |  | 1.5 | O=C(O)CC(O)C(=O)O (stereo not shown) [Malic acid, malic acid] | strong inhibition zones | 10 mm | 20 mm | 25 mm | possessed activity |  |  |  |  |  |  | 
6 |  |  | O=C(O)c1cccc2nc3ccccc3nc12 [PCA, Phenazine-1-carboxylic acid] |  |  |  |  |  |  |  |  |  |  | highly soluble | insoluble

Row | Structure (SMILES) | media pH ([1]; amount 4.2 to 8.4 mg) | media pH ([1]; amount 25.0 mg) | inhibition zone against take-all fungus [2] | zone of inhibition at 7500 µg/disc [2] | zone of inhibition at 12500 µg/disc [2] | zone of inhibition at 25000 µg/disc [2] | bioactivity against take-all [2] | biological activity against take-all relative to gluconic acid [2] | suppression of growth of B. fabae [3] | relation of amount used to size of inhibition zone ([2]; FIG. 6A, 25, 15, 12.5, 7.5 mg pure gluconic acid) | protection against take-all [2] | pKa [4] | solubility ([5]; in chloroform and methylene chloride) | solubility ([5]; in water, methanol and ethyl acetate)
7 | O=C(O)[C@H](O)[C@@H](O)[C@H](O)[C@H](O)CO [Gluconic acid, gluconic acid] |  | about 5.0 |  | 7 mm | 10 mm | 20 mm | strong biologically activity |  | suppress the growth and/or reproduction | positive correlation | confers protection |  |  | 
8 | O=C(O)CCCC(=O)O [Glutaric acid, glutaric acid] |  | 2.0 | strong inhibition zones | 15 mm | 20 mm | 25 mm | possessed activity |  |  |  |  | 4.31 |  | 
9 | O=C([O-])[C@H](O)[C@@H](O)[C@H](O)[C@H](O)CO.[Na+] [Sodium gluconate, reference compound] |  | about 7.0 |  | 0 mm | 0 mm | 0 mm |  |  |  |  | did not confer significant protection |  |  | 
